Results reported in patent publication US11726083B2, “Method for testing drug response of cardiomyocytes” (Myoridge Co. Ltd., priority 2017, dated 2023).
Read-outs that look alike come from different tables or passages of the source.

Test system: cardiomyocytes prepared by inducing differentiation of a human iPS cell line (253G1)
Conditions: for rate of change in heart rate / rate of change in Ca^2+ duration: 100% = no change
[1] = sample 2A: 100 nM, culture medium not containing hemoglobin, liquid-surface distance 6.67 mm
[2] = sample 2C: 100 nM, 0.5 mass % hemoglobin, liquid-surface distance 6.67 mm
[3] = sample 2D: 1000 nM, 0.5 mass % hemoglobin, liquid-surface distance 6.67 mm
[4] = sample 2E: 100 nM, 1.0 mass % hemoglobin, liquid-surface distance 6.67 mm
[5] = sample 2F: 1000 nM, 1.0 mass % hemoglobin, liquid-surface distance 6.67 mm
[6] = sample 3A: 100 nM, liquid-surface distance 8.33 mm
[7] = sample 3C: 100 nM, liquid-surface distance 6.67 mm
[8] = sample 3E: 100 nM, liquid-surface distance 5.00 mm
[9] = sample 3G: 100 nM, liquid-surface distance 3.33 mm
[10] = sample 3H: 1000 nM, liquid-surface distance 3.33 mm
[11] = sample 3I: 100 nM, liquid-surface distance 1.67 mm
[12] = sample 3J: 1000 nM, liquid-surface distance 1.67 mm
[13] = sample 4A: 100 nM, control container (polystyrene), liquid-surface distance 6.67 mm
[14] = sample 4C: 100 nM, oxygen-permeable container (VECELL 96-well plate), liquid-surface distance 6.67 mm
[15] = sample 5M: 300 μM, no hemoglobin, liquid-surface distance 6.67 mm
[16] = sample 5N: 300 μM, 2.0% by mass of hemoglobin, liquid-surface distance 1.0 mm
[17] = sample 5P: 500 μM, 2.0% by mass of hemoglobin, liquid-surface distance 1.0 mm

Cc1cccc(CCN2CCC(C(=O)c3ccc(NS(C)(=O)=O)cc3)CC2)n1 [E-4031]
pulsation (pulsation arrest) (sample 5E: 0.1 μM, no hemoglobin, liquid-surface distance 6.67 mm): did not stop
pulsation (pulsation arrest) (sample 5F: 0.1 μM, 0.5% by mass of hemoglobin, liquid-surface distance 1.67 mm): did not stop
pulsation (pulsation arrest) (sample 5G: 0.3 μM, no hemoglobin, liquid-surface distance 6.67 mm): stopped at a high frequency
pulsation (pulsation arrest) (sample 5H: 0.3 μM, 0.5% by mass of hemoglobin, liquid-surface distance 1.67 mm): did not stop

CC(C)NCC(O)c1ccc(O)c(O)c1 (stereo not shown) [isoproterenol]
expected drug response (tachycardic response) [1]: detected
pulsation (pulsation arrest) [1]: did not stop
pulsation (pulsation arrest) (sample 2B: 1000 nM, culture medium not containing hemoglobin, liquid-surface distance 6.67 mm): stopped at a high frequency
expected drug response [2]: detected
pulsation (pulsation arrest) [2]: did not stop
expected drug response [3]: detected
pulsation (pulsation arrest) [3]: did not stop at all
expected drug response [4]: detected
pulsation (pulsation arrest) [4]: did not stop
expected drug response [5]: detected
pulsation (pulsation arrest) [5]: did not stop at all
expected drug response (tachycardic response) [6]: detected
pulsation (pulsation arrest) [6]: did not stop
pulsation (pulsation arrest) (sample 3B: 1000 nM, liquid-surface distance 8.33 mm): stopped at a high frequency
expected drug response [7]: detected
pulsation (pulsation arrest) [7]: did not stop
pulsation (pulsation arrest) (sample 3D: 1000 nM, liquid-surface distance 6.67 mm): stopped at a high frequency
expected drug response [8]: detected
pulsation (pulsation arrest) [8]: did not stop
frequency of the occurrence of the pulsation arrest (sample 3F: 1000 nM, liquid-surface distance 5.00 mm): about 50%
expected drug response [9]: detected
pulsation (pulsation arrest) [9]: did not stop
expected drug response [10]: detected
pulsation (pulsation arrest) [10]: hardly stopped
expected drug response [11]: detected
pulsation (pulsation arrest) [11]: did not stop
expected drug response [12]: detected
pulsation (pulsation arrest) [12]: did not stop at all
expected drug response (tachycardic response) [13]: detected
pulsation (pulsation arrest) [13]: did not stop
pulsation (pulsation arrest) (sample 4B: 1000 nM, control container (polystyrene), liquid-surface distance 6.67 mm): stopped at a high frequency
expected drug response [14]: detected
pulsation (pulsation arrest) [14]: did not stop
pulsation (pulsation arrest) (sample 4D: 1000 nM, oxygen-permeable container (VECELL 96-well plate), liquid-surface distance 6.67 mm): stopped only at a low frequency

Cc1[nH]c(=O)c(C#N)cc1-c1ccncc1 [milrinone]
expected drug response (tachycardic response) [15]: not detected
pulsation (pulsation arrest) [15]: did not stop
rate of change in heart rate [15]: 79%
expected drug response [16]: detected
pulsation (pulsation arrest) [16]: did not stop
rate of change in heart rate [16]: 118%
pulsation (pulsation arrest) (sample 5O: 500 μM, no hemoglobin, liquid-surface distance 6.67 mm): stopped at a high frequency
expected drug response (tachycardic response) [17]: detected
pulsation (pulsation arrest) [17]: did not stop
rate of change in heart rate [17]: 154%

CC(C)(C)c1ccc(C(O)CCCN2CCC(C(O)(c3ccccc3)c3ccccc3)CC2)cc1 (stereo not shown) [terfenadine]
pulsation (pulsation arrest) (sample 5I: 0.1 μM, no hemoglobin, liquid-surface distance 6.67 mm): did not stop
pulsation (pulsation arrest) (sample 5J: 0.1 μM, 0.5% by mass of hemoglobin, liquid-surface distance 1.67 mm): did not stop
pulsation (pulsation arrest) (sample 5K: 0.7 μM, no hemoglobin, liquid-surface distance 6.67 mm): stopped at a high frequency
pulsation (pulsation arrest) (sample 5L: 0.7 μM, 0.5% by mass of hemoglobin, liquid-surface distance 1.67 mm): did not stop
rate of change in Ca^2+ duration (sample 6A: 0.3 μM, 0.5% by mass of hemoglobin, liquid-surface distance 1.67 mm): about 135%
rate of change in Ca^2+ duration (sample 6B: 0.5 μM, 0.5% by mass of hemoglobin, liquid-surface distance 1.67 mm): about 170%

hemoglobin: bovine hemoglobin (Nacalai tesque 17553-92), oxygen carrier added to the culture medium
occurrence of the pulsation arrest of the cardiomyocytes during the drug response testing (0.5 or 1.0 mass % hemoglobin added to the culture medium, isoproterenol 100/1000 nM, liquid-surface distance 6.67 mm (FIG. 3)): suppressed
